Patent publication US20100016547A1, “Glycosilated Peptide and Medicine Comprising It as an Effective Ingredient” (priority 2005, published 2010)
Peptide text beside a SMILES is read from it. * marks the point of attachment. NH(β-GlcNAc) = CC(=O)N[C@@H]1[C@@H](O)[C@H](O)[C@@H](CO)O[C@H]1N*

Assays:
GLP-1 receptor [1] = target: T1, GLP-1 receptor (Homo sapiens, UniProt P43220)
Protocol: After being incubated at room temperature for 2 hours, the solution was filtered through a unifilter 96GF/C plate (Perkin-Elmer) pretreated with 1% polyethylenimine containing 0.5% BSA, washed with 25 mM HEPES buffer solution (pH 7.4) containing 0.5% BSA, and radioactivity remained on the filter was measured by a gamma counter (Top Counter; Perkin-Elmer).

GLP-1 receptor [2] = target: T1, GLP-1 receptor; assay: Assay for production of cAMP

T1 sequence (P43220 24-463, species assumed): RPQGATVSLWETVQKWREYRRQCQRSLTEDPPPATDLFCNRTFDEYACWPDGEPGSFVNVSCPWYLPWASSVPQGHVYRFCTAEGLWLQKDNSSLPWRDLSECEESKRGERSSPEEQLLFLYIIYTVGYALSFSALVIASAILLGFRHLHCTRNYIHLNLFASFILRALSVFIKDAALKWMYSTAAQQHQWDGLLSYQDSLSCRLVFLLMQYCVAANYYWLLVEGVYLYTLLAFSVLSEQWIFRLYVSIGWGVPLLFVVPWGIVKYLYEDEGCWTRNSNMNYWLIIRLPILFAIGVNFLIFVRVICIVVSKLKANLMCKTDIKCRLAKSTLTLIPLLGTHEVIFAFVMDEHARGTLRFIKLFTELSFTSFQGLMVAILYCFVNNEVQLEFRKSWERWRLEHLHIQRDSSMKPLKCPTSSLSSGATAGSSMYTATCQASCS

IC50 (GLP-1 receptor [1])	EC50 (GLP-1 receptor [2])	Molecule
41 nM	8.1 nM	CC[C@H](C)[C@H](NC(=O)[C@H](Cc1ccccc1)NC(=O)[C@H](CCC(=O)O)NC(=O)[C@H](CCCCN)NC(=O)[C@H](C)NC(=O)[C@H](C)NC(=O)[C@H](CCC(N)=O)NC(=O)CNC(=O)[C@H](CCC(=O)O)NC(=O)[C@H](CC(C)C)NC(=O)[C@H](CC(=O)N[C@@H]1O[C@H](CO)[C@@H](O)[C@H](O)[C@H]1NC(C)=O)NC(=O)[C@H](CO)NC(=O)[C@H](CO)NC(=O)[C@@H](NC(=O)[C@H](CC(=O)O)NC(=O)[C@H](CO)NC(=O)[C@@H](NC(=O)[C@H](Cc1ccccc1)NC(=O)[C@@H](NC(=O)CNC(=O)[C@H](CCC(=O)O)NC(=O)[C@H](C)NC(=O)[C@@H](N)Cc1c[nH]cn1)[C@@H](C)O)[C@@H](C)O)C(C)C)C(=O)N[C@@H](C)C(=O)N[C@@H](Cc1c[nH]c2ccccc12)C(=O)N[C@@H](CC(C)C)C(=O)N[C@H](C(=O)N[C@@H](CCCCN)C(=O)NCC(=O)N[C@@H](CCCNC(=N)N)C(N)=O)C(C)C [GL19NG] (H-HAEGTFTSDVSSD(NH(β-GlcNAc))LEGQAAKEFIAWLVKGR-NH2)
11 nM	0.92 nM	H-HAEGTFTSDVSSNLEGQAAKEFIAWLVKGR-NH2 [GL19N]
0.76 nM	0.11 nM	CC[C@H](C)[C@H](NC(=O)[C@H](Cc1ccccc1)NC(=O)[C@H](CCC(=O)O)NC(=O)[C@H](CCCCN)NC(=O)[C@H](C)NC(=O)[C@H](C)NC(=O)[C@H](CCC(N)=O)NC(=O)CNC(=O)[C@H](CCC(=O)O)NC(=O)[C@H](CC(C)C)NC(=O)[C@H](Cc1ccc(O)cc1)NC(=O)[C@H](CO)NC(=O)[C@H](CO)NC(=O)[C@@H](NC(=O)[C@H](CC(=O)O)NC(=O)[C@H](CO)NC(=O)[C@@H](NC(=O)[C@H](Cc1ccccc1)NC(=O)[C@@H](NC(=O)CNC(=O)[C@H](CCC(=O)O)NC(=O)[C@H](C)NC(=O)[C@@H](N)Cc1c[nH]cn1)[C@@H](C)O)[C@@H](C)O)C(C)C)C(=O)N[C@@H](C)C(=O)N[C@@H](Cc1c[nH]c2ccccc12)C(=O)N[C@@H](CC(C)C)C(=O)N[C@H](C(=O)N[C@@H](CC(=O)N[C@@H]1O[C@H](CO)[C@@H](O[C@@H]2O[C@H](CO)[C@H](O)[C@H](O)[C@H]2O)[C@H](O)[C@H]1NC(C)=O)C(=O)NCC(=O)N[C@@H](CCCNC(=N)N)C(N)=O)C(C)C [GL34NL]
